According to patent US7056450B2, “Highly concentrated aqueous solutions of N,N-dialkyl-glycines and process for preparation thereof” (Showa Denko K.K., priority 2001, dated 2006):

Test: Standing test of aqueous solution for crystalline deposit
Type: physicochemical

Row | crystalline deposit on standing (aqueous 60% by mass solution, left standing at 0° C. for 10 days) | Compound | crystalline deposit on standing (aqueous 30% by mass solution, left standing at room temperature)
1 | – | CN(C)CC(=O)[O-].[Na+] [N,N-dimethylglycine sodium salt] | crystalline N,N-dimethylglycine sodium salt deposited
2 | no crystalline deposit was observed | CN(C)CC(=O)O [N,N-dimethylglycine] | –
